Key:
[1] = test system: collagen-induced arthritis (CIA); assay: Collagen-induced arthritis (CIA) model, paw size and clinical score; assay type: in vivo, female DBA/1 mice
Experimental: (§1) Female DBA/1 mice were injected with purified collagen type II in CFA i.d. (intradermal), then boosted with collagen type II in IFA, s.c., (subcutaneous) on day 21 followed by a day 28 LPS injection i.p. to induce arthritis (CIA). Mice that scored a ‘1’ or better for each paw were considered arthritic and entered into the study. Treatments started after 7-10 days of arthritis induction. Compound A was provided orally, b.i.d., for all doses tested; Dex was administered i.p. at 1.5 mg/kg, three times a week; and vehicle (PEG400+1% DMSO) was provided orally, b.i.d.
Compound A was then tested in a more physiologic and progressive disease model of RA (i.e., collagen-induced arthritis (CIA) model). […] Early model optimization studies consistently generated robust collagen-induced-arthritis phenotypes that were absent from control treated, non-diseased, animals. CIA arthritic animals were separated into groups and treated with Compound A at 30, 55 and 100 mg/kg doses b.i.d, p.o.; vehicle or the standard-of-care reference drug, Dex at 1.5 mg/kg, which were administered as described above. […] The faster onset of swelling reduction noted for the 100 mg/kg treatment group may be explained by differences in the mechanism of action of Compound A.
Acclimated mice were randomized and pre-bled and measured for baseline inflammation before any studies were initiated. On day 0, DBA/1 female mice were given a primary immunization with equal volumes of bovine type II collagen (CII), 2 mg/ml stock in 0.05 M acetic acid, (Chrondrex, Redmond, Wash.) suspended in CFA, 5 mg/ml (Chondrex, Redmond, Wash.) emulsion yielding an injection of 100 μg of CII at 100 μl into the base of the tail intradermally (i.d.). At day 21 post primary immunization, mice were re-challenged with CII emulsified in Incomplete Freund's Adjuvant (IFA) (Thermo Scientific, Rockford, Ill.) s.c. on the flank of the mouse. On day 28 each mouse received an i.p. injection of E. coli 0111:B4 LPS (0.5 mg/ml stock) (Chondrex, Redmond, Wash.) at 10 μg in 100 μl of saline (25-50 μg of LPS was reduced to 10 μg per mouse to reduce mortality associated with endotoxic shock). Around day 35 the mice begin to show signs of paw inflammation and disease. Before starting treatment mice were randomized, grouped, scored, ear tagged and pre-bled to determine baseline disease. […] Arthritis clinical scores were the same as that used to score the CAIA model (see CAIA methods). Vehicle consisted of PEG400 plus 1% DMSO given orally, twice daily (b.i.d). […] All samples were kept at −80° C. until ready to assay. At about day 60 mice were harvested for spleen, plasma and arthritic paws for STAT and cytokine quantitation and histological analysis.

[2] = test system: serum and paw cytokines; assay: CIA model, serum and paw cytokines (Luminex bead assay); assay type: in vivo, female DBA/1 mice
Experimental: as §1
FIGS. 4C-1 through 4C-4: Depict concentrations of various serum cytokines (IL-12, IL-2, IL-10 and TNFα) in arthritic paws in each treatment group.
Frozen plasma at −80° C. was thawed on ice, vortexed, then centrifuged for 10 minutes to remove debris and aggregates. A total of 25-50 μl of serum was used for Luminex® assays following the manufacturer's instruction. Ten different mouse cytokines were measured using the mouse cytokine 10-plex bead kit (Invitrogen, Carlsbad, Calif.). […]
A more detailed description of this method can be found described elsewhere (Lu et al, 2010, submitted for publication). […] Protein concentration was measured using a BCA protein assay (Pierce, Rockford, Ill.) and adjusted to 3 mg/ml. […]

[3] = target: T1, human JAK1 (Homo sapiens, UniProt P23458); assay: JAK1 kinase enzyme assay, TRF detection; assay type: biochemical; conditions: relative to JAK2
T1 construct: host or cells: baculovirus expression
T1 sequence (P23458 whole entry): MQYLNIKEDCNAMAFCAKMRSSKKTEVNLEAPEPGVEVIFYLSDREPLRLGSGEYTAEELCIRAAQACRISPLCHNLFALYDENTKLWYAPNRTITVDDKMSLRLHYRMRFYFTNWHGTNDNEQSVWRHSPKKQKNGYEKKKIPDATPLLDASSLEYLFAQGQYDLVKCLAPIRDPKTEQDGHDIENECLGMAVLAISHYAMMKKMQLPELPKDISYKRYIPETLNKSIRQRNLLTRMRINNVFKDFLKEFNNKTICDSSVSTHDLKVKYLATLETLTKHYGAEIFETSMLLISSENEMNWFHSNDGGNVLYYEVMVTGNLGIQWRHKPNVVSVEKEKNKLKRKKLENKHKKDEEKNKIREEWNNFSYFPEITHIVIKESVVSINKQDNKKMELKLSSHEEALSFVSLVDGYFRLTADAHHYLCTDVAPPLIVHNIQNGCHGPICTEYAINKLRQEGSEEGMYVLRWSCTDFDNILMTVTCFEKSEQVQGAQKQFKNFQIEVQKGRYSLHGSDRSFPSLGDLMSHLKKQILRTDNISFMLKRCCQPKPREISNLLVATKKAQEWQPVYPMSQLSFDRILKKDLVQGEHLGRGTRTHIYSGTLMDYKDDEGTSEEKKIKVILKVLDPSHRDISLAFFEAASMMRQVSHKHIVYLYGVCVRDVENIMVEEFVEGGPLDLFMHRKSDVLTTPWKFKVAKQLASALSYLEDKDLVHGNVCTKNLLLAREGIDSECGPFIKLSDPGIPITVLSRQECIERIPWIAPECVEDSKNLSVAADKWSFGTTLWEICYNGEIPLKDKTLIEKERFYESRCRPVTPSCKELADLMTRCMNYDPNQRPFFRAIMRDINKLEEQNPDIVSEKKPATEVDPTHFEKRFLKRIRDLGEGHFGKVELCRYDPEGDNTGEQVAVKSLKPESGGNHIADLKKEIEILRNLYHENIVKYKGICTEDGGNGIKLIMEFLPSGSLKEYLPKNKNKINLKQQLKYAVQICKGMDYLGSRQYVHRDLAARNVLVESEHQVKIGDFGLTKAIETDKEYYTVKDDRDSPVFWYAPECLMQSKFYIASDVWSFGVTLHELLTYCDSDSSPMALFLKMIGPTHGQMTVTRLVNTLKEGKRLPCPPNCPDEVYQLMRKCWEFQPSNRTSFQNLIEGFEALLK
Experimental: The kinase activity of baculovirus-expressed human JAK kinases (JAK1, JAK2, JAK3 or TYK2) was measured using the time-resolved fluorescence (TRF) detection system as described elsewhere [17]. Each 96-well Costar high binding plate (Corning, Corning, N.Y.) was coated with 100 μl/well of 10 μg/ml neutravidin (Pierce Biotechnology, Rockford, Ill.) in TBS at 37° C. for 2 h, followed by 100 μl/well of 1 μg/ml 15-mer peptide substrate (biotinyl-amino-hexanoyl-[sequence]-amide, Infinity Biotech Research and Resource, Aston, Pa.) at 37° C. for 1 h. The kinase assay mixture (total volume=100 μl/well) consisting of 20 mM HEPES (pH 7.2), ATP (Km level for each kinase), 1 mM MnCl2, 0.1% BSA, and test Compound (diluted in DMSO; 2.5% DMSO final in assay) was added to the assay plate. The concentrations of ATP used were as follows: 0.2 μM ATP for JAK1, JAK2 and TYK2; 0.1 μM ATP for JAK3. Enzyme was added and the reaction was allowed to proceed for 20 min at RT. […] Plates were agitated for 10 min and the fluorescence of the resulting solution measured using the PerkinElmer EnVision® 2102 or 2104 multi-label plate reader. IC50 values were determined using the 4-parameter logistic model in XLFit® 4 (IDBS, Ltd., Guildford, UK).

[4] = CIA, 30, 55 and 100 mg/kg b.i.d. p.o.

## CN1CCN(c2cccc(Nc3nc4c(-c5ccc(S(C)(=O)=O)cc5)cccn4n3)c2)CC1 [Compound A, [8-(4-Methanesulfonyl-phenyl)-[1,2,4]triazolo[1,5-a]pyridin-2-yl]-[3-(4-methyl-piperazin-1-yl)-phenyl]-amine]
[1]; CIA, 100 mg/kg
  suppression of paw swelling versus Dex: near identical suppression of paw swelling
[1]; CIA, 100 mg/kg, day 43
  onset of swelling reduction versus Dex: more rapid drop in swelling as compared to the Dex treatment group
[1]; [4]
  clinical score: reduction in clinical score in a dose-dependent manner
  mean paw size: clear reduction in the mean paw size
[2]; all three doses
  serum and paw cytokines (IL-12, IL-2, IL-10, TNFα, IL-4) and spleen IL-12: decrease in several serum and paw cytokines
[2]; all three doses (30, 55, 100 mg/kg)
  serum IL-12 level: significantly decrease the level of IL-12 comparable to that observed with Dex
[3]
  selectivity versus JAK1: > 40 fold
